Results from ChEMBL document CHEMBL3272341, “Cellular pharmocodynamics of several anthrocycline antibiotics” (J Med Chem, 1976).

Experiments:
L1210 [1] = assay: Inhibition of RNA synthesis in mouse L1210 cells assessed as inhibition of [14C]-uridine incorporation measured per 10^6 cells at 5 uM pretreated for 1 hr followed by radiotracer addition measured after 1 hr by scintillation spectrometric analysis relative to control; format: functional
L1210 [2] = assay: Inhibition of DNA synthesis in mouse L1210 cells assessed as inhibition of [3H]-thymidine incorporation measured per 10^6 cells at 5 uM pretreated for 1 hr followed by radiotracer addition measured after 1 hr by scintillation spectrometric analysis relative to control; format: functional
L1210 [3] = assay: Inhibition of RNA synthesis in mouse L1210 cells assessed as inhibition of [14C]-uridine incorporation measured per 10^6 cells […] pretreated for 1 hr followed by radiotracer addition measured after 1 hr by scintillation spectrometric analysis relative to control; format: functional
L1210 [4] = assay: Inhibition of RNA synthesis in mouse L1210 cells assessed as inhibition of [14C]-uridine incorporation measured per 10^6 cells at 3 uM pretreated for 1 hr followed by radiotracer addition measured after 1 hr by scintillation spectrometric analysis relative to control; format: functional
L1210 [5] = assay: Inhibition of DNA synthesis in mouse L1210 cells assessed as inhibition of [3H]-thymidine incorporation measured per 10^6 cells […] pretreated for 1 hr followed by radiotracer addition measured after 1 hr by scintillation spectrometric analysis relative to control; format: functional
L1210 [6] = assay: Ratio of inhibition of [3H]-thymidine incorporation into DNA in mouse L1210 cells to cellular uptake in mouse L1210 cells
L1210 [7] = assay: Ratio of inhibition of [14C]-uridine incorporation into RNA in mouse L1210 cells to cellular uptake in mouse L1210 cells
L1210 [8] = assay: Inhibition of DNA synthesis in mouse L1210 cells assessed as inhibition of [3H]-thymidine incorporation measured per 10^6 cells at 3 uM pretreated for 1 hr followed by radiotracer addition measured after 1 hr by scintillation spectrometric analysis relative to control; format: functional
L1210 [9] = assay: Cellular uptake in mouse L1210 cells assessed per 10^6 cells at 3 uM up to 120 mins; format: ADME, cell-based; conditions: l1210, 2 h

Row | Compound | inhibition at 5 µM (L1210 [1]) [%] | inhibition at 5 µM (L1210 [2]) [%] | inhibition at 1 µM (L1210 [3]) [%] | inhibition at 3 µM (L1210 [4]) [%] | inhibition at 1 µM (L1210 [5]) [%] | Ratio (L1210 [6]) | Ratio (L1210 [7]) | inhibition at 3 µM (L1210 [8]) [%] | Drug uptake (L1210 [9]) [nmol]
1 | COc1cccc2c1C(=O)c1c(O)c3c(c(O)c1C2=O)C[C@@](O)([C@@H](O)CO)C[C@@H]3O[C@H]1C[C@H](N)[C@H](O)[C@H](C)O1 | 22.4 | 32 | 10.1 | 17.9 | 23.7 | 200 | 137 | 25 | 0.16
2 | COc1cccc2c1C(=O)c1c(O)c3c(c(O)c1C2=O)C[C@@](O)(C(C)O)C[C@@H]3O[C@H]1C[C@H](N)[C@H](O)[C@H](C)O1 (stereo not given in full) | 46.4 | 36.8 | 11.2 | 28.9 | 12.1 | 94 | 88 | 30.8 | 0.33
3 | COc1cccc2c1C(=O)c1c(O)c3c(c(O)c1C2=O)C[C@@](O)(C(C)=O)C[C@@H]3O[C@H]1C[C@H](N)[C@H](O)[C@H](C)O1 [DAUNORUBICIN] | 74.8 | 83 | 47.6 | 69.8 | 37 | 119 | 155 | 68.8 | 0.31
4 | COc1cccc2c1C(=O)c1c(O)c3c(c(O)c1C2=O)C[C@@](O)(C(=O)CO)C[C@@H]3O[C@H]1C[C@H](N)[C@H](O)[C@H](C)O1 [DOXORUBICIN] | 56.9 | 52.2 | 22.5 | 50.8 | 28.9 | 152 | 121 | 34.5 | 0.19
5 | COc1cccc2c1C(=O)C1=C(C2=O)C(O)C2=C(C1O)[C@@H](C[C@@H]1C[C@H](N)[C@@H](O)[C@H](C)O1)C[C@@](O)(/C(C)=N/NC(=O)c1ccccc1)C2 (stereo not given in full) [RUBIDAZONE] | 58.2 | 41 | 11.6 | 36.8 | 12.7 | 65 | 60 | 27.2 | 0.2
